Data reported in patent US20080108611A1, “SUBSTITUTED THIENOPYRIMIDINE KINASE INHIBITORS” (priority 2006, published 2008).

Biological target: T1, EGFR (Homo sapiens, UniProt P00533)
T1 construct: The intracellular portion of EGFR started at nucleotide 2189 (corresponding to amino acid 667) and ended at the termination codon; made in house; host or cells: Sf9 insect cells (baculovirus)
Experiment: EGFR Kinase Assay
Type: biochemical
Conditions: test concentration of 2 μM (compounds without an IC50); read-out: EGFR percent inhibition
From the text: The EGFR kinase used was a fusion of Glutathione-S-Transferase (GST) and a PCR amplified intracellular portion of EGFR (NM_005228). The intracellular portion of EGFR started at nucleotide 2189 (corresponding to amino acid 667) and ended at the termination codon. The portion was PCR amplified with primers that added the lambda attB sequences to each end, recombined into an entry vector, then into a GST destination vector (as described in Gateway Technologies Manual by Invitrogen Corporation, Carlsbad, Calif.).
The destination vector was recombined in the DH10BAC strain of bacteria to produce a bacmid. The bacmid was transfected into Sf 9 cells and the supernatant containing the baculovirus was collected. The GSTEGFR protein was purified using large cultures of Sf 9 cells infected with stock virus. After an appropriate period of time, the cells were collected and lysed. The GSTEGFR was then purified from the lysate on Glutathione-Sepharose columns (as described by Amersham Biosciences, Buckinghamshire, United Kingdom).
The EGFR substrate was prepared by biotinylating polyGluTyr (128 mg) (Sigma, St. Louis, Mo.) in a 1×PBS buffer incubated together with a 12-fold molar excess of Sulfo-NHS-LC-Biotin on ice for at least 2 hrs. The free biotin was separated from the biotinylated polyGluTyr on a gel filtration column.
A mixture of a 10× kinase buffer (500 mM Tris at pH 8.0, 100 mM Magnesium Chloride and 1 mM Sodium Vanadate), DTT (1 mM final from 500 mM stock), ATP (5 μM final from 10 mM stock), biotinylated polyGluTyr (10 μg/μL stock), γ-^33P ATP (10 μCi/μL stock) and water was added to each well (90 μL/well) of a Streptavidin Flashplate (Perkin Elmer, Wellesley, M A).
Test compound in 100% DMSO (2 μL) was added to the appropriate wells. Diluted GSTEGFR (1:300 dilution in 50 mM Tris at pH 8.0 and 0.1% bovine serum albumin) (10 μL) was added to the wells to initiate the reactions.
The plates were incubated at 30° C. for 1 hr with shaking. The reacted contents were removed and the plates were sequentially washed three times with a 1×PBS stop buffer (300 μL without Magnesium and Calcium) and 100 mM EDTA. After the final wash, the same stop buffer (200 μL) was added to the wells. The plates were then sealed and read on the TopCount scintillation counter.
Test compounds were assayed in triplicate at 16 concentrations at half-log dilutions starting at 200 uM. A maximum and minimum signal for the assay was determined on each plate. The percent inhibition of a test compound was calculated according to the formula
For a series of test concentrations, the IC50 was derived by graphing percent inhibition against the log of the concentrations tested for a given compound. For those compounds without an IC50, the percent inhibition results are shown at a test concentration of 2 μM.

T1 sequence (P00533 669-1210 limits assumed): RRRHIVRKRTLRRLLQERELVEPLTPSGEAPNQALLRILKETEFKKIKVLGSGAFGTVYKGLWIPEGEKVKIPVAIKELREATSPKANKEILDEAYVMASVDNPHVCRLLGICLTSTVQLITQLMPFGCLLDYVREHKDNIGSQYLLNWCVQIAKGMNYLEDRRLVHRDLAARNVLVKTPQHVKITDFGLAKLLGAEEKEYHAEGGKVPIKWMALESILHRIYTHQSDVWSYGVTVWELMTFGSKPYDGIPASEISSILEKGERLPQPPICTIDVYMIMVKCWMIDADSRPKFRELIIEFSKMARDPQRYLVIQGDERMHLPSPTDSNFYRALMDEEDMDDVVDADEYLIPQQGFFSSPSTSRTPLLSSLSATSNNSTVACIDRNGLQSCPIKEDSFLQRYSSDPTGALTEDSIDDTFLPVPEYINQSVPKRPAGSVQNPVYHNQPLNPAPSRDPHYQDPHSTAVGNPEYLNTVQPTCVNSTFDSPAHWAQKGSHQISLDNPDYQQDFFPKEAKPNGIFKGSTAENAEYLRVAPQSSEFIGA

inhibition at 2 µM: 10%
SMILES: Cc1cc2c(F)c(Oc3ncnc4sc(C(=O)NCCN5CCOCC5)c(C)c34)ccc2[nH]1 [Cpd 19, 4-(4-fluoro-2-methyl-1H-indol-5-yloxy)-5-methyl-thieno[2,3-d]pyrimidine-6-carboxylic acid (2-morpholin-4-yl-ethyl)-amide]
